# Data published in ChEMBL document CHEMBL5331104, “Discovery of BRD4-HDAC Dual Inhibitors with Improved Fungal Selectivity and Potent Synergistic Antifungal Activity against Fluconazole-Resistant Candida albicans” (J Med Chem, 2023).
# What was measured:
# Histone deacetylase 1 = Histone deacetylase 1 (Homo sapiens, UniProt Q13547); test: Inhibition of full-length recombinant human HDAC1 (1 to 482 residues) expressed in baculovirus infected insect cells using […] as substrate incubated for 30 mins by fluorescence based analysis; design: species or system Insect cell
# HL-60 = test: Antiproliferative activity against human HL-60 cells incubated for 48 hrs by CCK8 assay; format: functional, cell-based; details: HL-60, 48 h
# Histone deacetylase = test: Inhibition of total HDAC in human HUVEC cells using Boc-Lys(Ac)-AMC as substrate preincubated for 12 hrs followed by substrate addition measured after 6 hrs by microtiter plate reader analysis; format: cell-based
# K562 = test: Antiproliferative activity against human K562 cells incubated for 48 hrs by CCK8 assay; format: functional, cell-based; details: K562, 48 h
# HEL = test: Antiproliferative activity against human HEL cells incubated for 48 hrs by CCK8 assay; format: functional, cell-based
# Candida albicans [1] = test: Antifungal activity against Candida albicans SC5314 assessed as fungal growth inhibition incubated for 24 hrs by broth dilution method; format: functional
# Cryptococcus neoformans = test: Antifungal activity against Cryptococcus neoformans H99 assessed as fungal growth inhibition incubated for 24 hrs by broth dilution method; format: functional
# Candida albicans [2] = test: microbe, parasite or virus in culture; format: functional; details: 0304103
# Description: Antifungal activity against Candida albicans 0304103 assessed as microbial growth inhibition
# Candida albicans [3] = test: microbe, parasite or virus in culture; format: functional; details: 0304103, time 24 hrs
# Description: Synergetic antifungal activity against Candida albicans 0304103 assessed as microbial growth inhibition incubated for 24 hrs in the presence of fluconazole by checkerboard microdilution method
# Candida albicans [4] = format: functional, 0304103; details: time 24 hrs
# Description: Synergetic antifungal activity against Candida albicans 0304103 assessed as fractional inhibitory concentration index incubated for 24 hrs in the presence of fluconazole by checkerboard microdilution method
# in vitro = details: human, HUVEC cells
# Description: Cytotoxicity against HUVECs assessed as inhibition of cell growth incubated for 48 hrs by CCK8 assay
# Sequence of Histone deacetylase 1 (Q13547 whole entry, the tested form may be a part): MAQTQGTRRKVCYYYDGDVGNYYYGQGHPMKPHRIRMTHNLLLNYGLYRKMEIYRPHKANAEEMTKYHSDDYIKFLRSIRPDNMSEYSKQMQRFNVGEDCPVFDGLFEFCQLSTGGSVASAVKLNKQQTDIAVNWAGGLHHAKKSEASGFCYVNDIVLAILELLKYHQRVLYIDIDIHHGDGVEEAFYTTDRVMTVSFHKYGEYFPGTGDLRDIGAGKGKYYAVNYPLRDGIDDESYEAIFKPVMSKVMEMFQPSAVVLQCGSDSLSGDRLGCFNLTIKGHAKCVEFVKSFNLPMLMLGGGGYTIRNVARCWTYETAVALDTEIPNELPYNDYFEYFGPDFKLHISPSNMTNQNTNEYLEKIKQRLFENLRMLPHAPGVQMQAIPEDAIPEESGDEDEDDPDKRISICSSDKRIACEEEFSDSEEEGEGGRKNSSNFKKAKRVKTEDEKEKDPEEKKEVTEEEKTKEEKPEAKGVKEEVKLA
smiles,measurement,setting,value
Cc1nnc2n1-c1ccccc1C(c1ccc(Cl)cc1)=N[C@H]2CC(=O)Nc1ccc(/C=C/C(=O)NO)cc1,IC50,Histone deacetylase 1,0.63 µM
same,IC50,HL-60,4.7 µM
same,IC50,Histone deacetylase,0.42 µM
same,IC50,K562,1.5 µM
same,IC50,HEL,> 10 µM
same,MIC80,Candida albicans [1],> 64 µg/mL
same,MIC80,Cryptococcus neoformans,8 µg/mL
same,MIC80,Candida albicans [2],> 64 µg/mL
same,MIC80,Candida albicans [3],4 µg/mL
same,fractional inhibitory concentration index (FICI),Candida albicans [4],0.066
same,IC50 at 48 h,in vitro,8.1 µM
Cc1nnc2n1-c1ccccc1C(c1ccc(Cl)cc1)=N[C@H]2CC(=O)NCc1ccc(C(=O)NO)cc1,IC50,Histone deacetylase 1,0.56 µM
same,IC50,HL-60,7.1 µM
same,IC50,Histone deacetylase,2.7 µM
same,IC50,K562,> 10 µM
same,IC50,HEL,> 10 µM
same,MIC80,Candida albicans [1],> 64 µg/mL
same,MIC80,Cryptococcus neoformans,32 µg/mL
same,MIC80,Candida albicans [2],> 64 µg/mL
same,MIC80,Candida albicans [3],16 µg/mL
same,fractional inhibitory concentration index (FICI),Candida albicans [4],0.28
same,IC50 at 48 h,in vitro,23 µM
Cc1nnc2n1-c1ccc(Cl)cc1C(c1ccccc1Cl)=N[C@H]2CC(=O)Nc1ccc(CC(=O)NO)cc1,IC50,Histone deacetylase 1,1.1 µM
same,IC50,HL-60,9.7 µM
same,IC50,Histone deacetylase,4.4 µM
same,IC50,K562,8 µM
same,IC50,HEL,> 10 µM
same,MIC80,Candida albicans [1],> 64 µg/mL
same,MIC80,Cryptococcus neoformans,16 µg/mL
same,MIC80,Candida albicans [2],> 64 µg/mL
same,MIC80,Candida albicans [3],8 µg/mL
same,fractional inhibitory concentration index (FICI),Candida albicans [4],0.14
same,IC50 at 48 h,in vitro,19 µM
Cc1nnc2n1-c1ccccc1C(c1ccccc1)=N[C@H]2CC(=O)Nc1ccc(/C=C/C(=O)NO)cc1,IC50,Histone deacetylase 1,0.1 µM
same,IC50,HL-60,7 µM
same,IC50,Histone deacetylase,0.016 µM
same,IC50,K562,1.9 µM
same,IC50,HEL,> 10 µM
same,MIC80,Candida albicans [1],> 64 µg/mL
same,MIC80,Cryptococcus neoformans,8 µg/mL
same,MIC80,Candida albicans [2],> 64 µg/mL
same,MIC80,Candida albicans [3],4 µg/mL
same,fractional inhibitory concentration index (FICI),Candida albicans [4],0.094
same,IC50 at 48 h,in vitro,14 µM
Cc1nnc2n1-c1ccc(Cl)cc1C(c1ccccc1Cl)=N[C@H]2CC(=O)NCc1ccc(C(=O)NO)cc1,IC50,Histone deacetylase 1,1.9 µM
same,IC50,HL-60,> 10 µM
same,IC50,Histone deacetylase,3.4 µM
same,IC50,K562,> 10 µM
same,IC50,HEL,> 10 µM
same,MIC80,Candida albicans [1],> 64 µg/mL
same,MIC80,Cryptococcus neoformans,16 µg/mL
same,MIC80,Candida albicans [2],> 64 µg/mL
same,MIC80,Candida albicans [3],8 µg/mL
same,fractional inhibitory concentration index (FICI),Candida albicans [4],0.16
same,IC50 at 48 h,in vitro,48 µM
Cc1nnc2n1-c1ccccc1C(c1ccccc1)=N[C@H]2CC(=O)Nc1ccc(CC(=O)NO)cc1,IC50,Histone deacetylase 1,0.73 µM
same,IC50,HL-60,4.4 µM
same,IC50,Histone deacetylase,6.5 µM
same,IC50,K562,> 10 µM
same,IC50,HEL,> 10 µM
same,MIC80,Candida albicans [1],> 64 µg/mL
same,MIC80,Cryptococcus neoformans,32 µg/mL
same,MIC80,Candida albicans [2],> 64 µg/mL
same,MIC80,Candida albicans [3],8 µg/mL
same,fractional inhibitory concentration index (FICI),Candida albicans [4],0.19
same,IC50 at 48 h,in vitro,24 µM
Cc1nnc2n1-c1sc3c(c1C(c1ccc(Cl)cc1)=N[C@H]2CC(=O)Nc1ccc(/C=C/C(=O)NO)cc1)CCCC3,IC50,Histone deacetylase 1,0.79 µM
same,IC50,HL-60,5.1 µM
same,IC50,Histone deacetylase,0.15 µM
same,IC50,K562,2.4 µM
same,IC50,HEL,> 10 µM
same,MIC80,Candida albicans [1],> 64 µg/mL
same,MIC80,Cryptococcus neoformans,4 µg/mL
same,MIC80,Candida albicans [2],> 64 µg/mL
same,MIC80,Candida albicans [3],4 µg/mL
same,fractional inhibitory concentration index (FICI),Candida albicans [4],0.066
same,IC50 at 48 h,in vitro,4.7 µM
Cc1nnc2n1-c1ccccc1C(c1ccccc1)=N[C@H]2CC(=O)Nc1ccc(C(=O)NO)cc1,IC50,Histone deacetylase 1,0.062 µM
same,IC50,HL-60,1.7 µM
same,IC50,Histone deacetylase,0.065 µM
same,IC50,K562,3.3 µM
same,IC50,HEL,> 10 µM
same,MIC80,Candida albicans [1],> 64 µg/mL
same,MIC80,Cryptococcus neoformans,16 µg/mL
same,MIC80,Candida albicans [2],> 64 µg/mL
same,MIC80,Candida albicans [3],4 µg/mL
same,fractional inhibitory concentration index (FICI),Candida albicans [4],0.094
same,IC50 at 48 h,in vitro,25 µM
Cc1ccc(C2=N[C@@H](CC(=O)Nc3ccc(C(=O)NO)cc3)c3nnc(C)n3-c3ccccc32)cc1,IC50,Histone deacetylase 1,51 µM
same,IC50,HL-60,0.34 µM
same,IC50,Histone deacetylase,0.13 µM
same,IC50,K562,> 10 µM
same,IC50,HEL,0.39 µM
same,MIC80,Candida albicans [1],> 64 µg/mL
same,MIC80,Cryptococcus neoformans,32 µg/mL
same,MIC80,Candida albicans [2],> 64 µg/mL
same,MIC80,Candida albicans [3],4 µg/mL
same,fractional inhibitory concentration index (FICI),Candida albicans [4],0.078
same,IC50 at 48 h,in vitro,2.8 µM
Cc1nnc2n1-c1sc3c(c1C(c1ccc(Cl)cc1)=N[C@H]2CC(=O)Nc1ccc(CC(=O)NO)cc1)CCCC3,IC50,Histone deacetylase 1,1.4 µM
same,IC50,HL-60,1.1 µM
same,IC50,Histone deacetylase,2.2 µM
same,IC50,K562,> 10 µM
same,IC50,HEL,4 µM
same,MIC80,Candida albicans [1],> 64 µg/mL
same,MIC80,Cryptococcus neoformans,16 µg/mL
same,MIC80,Candida albicans [2],> 64 µg/mL
same,MIC80,Candida albicans [3],4 µg/mL
same,fractional inhibitory concentration index (FICI),Candida albicans [4],0.07
same,IC50 at 48 h,in vitro,5.9 µM
Cc1nnc2n1-c1ccccc1C(c1ccc(Cl)cc1)=N[C@H]2CC(=O)Nc1ccc(C(=O)NO)cc1,IC50,Histone deacetylase 1,0.11 µM
same,IC50,HL-60,0.87 µM
same,IC50,Histone deacetylase,0.16 µM
same,IC50,K562,> 10 µM
same,IC50,HEL,> 10 µM
same,MIC80,Candida albicans [1],> 64 µg/mL
same,MIC80,Cryptococcus neoformans,32 µg/mL
same,MIC80,Candida albicans [2],> 64 µg/mL
same,MIC80,Candida albicans [3],16 µg/mL
same,fractional inhibitory concentration index (FICI),Candida albicans [4],31
same,IC50 at 48 h,in vitro,34 µM
Cc1nnc2n1-c1ccc(Cl)cc1C(c1ccccc1Cl)=N[C@H]2CC(=O)Nc1ccc(/C=C/C(=O)NO)cc1,IC50,Histone deacetylase 1,1.3 µM
same,IC50,HL-60,4.2 µM
same,IC50,Histone deacetylase,0.035 µM
same,IC50,K562,3.1 µM
same,IC50,HEL,8.3 µM
same,MIC80,Candida albicans [1],> 64 µg/mL
same,MIC80,Cryptococcus neoformans,8 µg/mL
same,MIC80,Candida albicans [2],> 64 µg/mL
same,MIC80,Candida albicans [3],4 µg/mL
same,fractional inhibitory concentration index (FICI),Candida albicans [4],0.07
same,IC50 at 48 h,in vitro,7.3 µM
Cc1ccc(C2=N[C@@H](CC(=O)Nc3ccc(CC(=O)NO)cc3)c3nnc(C)n3-c3ccccc32)cc1,IC50,Histone deacetylase 1,2.9 µM
same,IC50,HL-60,5.1 µM
same,IC50,Histone deacetylase,3.8 µM
same,IC50,K562,> 10 µM
same,IC50,HEL,> 10 µM
same,MIC80,Candida albicans [1],> 64 µg/mL
same,MIC80,Cryptococcus neoformans,32 µg/mL
same,MIC80,Candida albicans [2],> 64 µg/mL
same,MIC80,Candida albicans [3],8 µg/mL
same,fractional inhibitory concentration index (FICI),Candida albicans [4],0.14
same,IC50 at 48 h,in vitro,33 µM
Cc1nnc2n1-c1ccccc1C(c1ccc(Cl)cc1)=N[C@H]2CC(=O)Nc1ccc(CC(=O)NO)cc1,IC50,Histone deacetylase 1,2.4 µM
same,IC50,HL-60,1.1 µM
same,IC50,Histone deacetylase,2.8 µM
same,IC50,K562,> 10 µM
same,IC50,HEL,> 10 µM
same,MIC80,Candida albicans [1],> 64 µg/mL
same,MIC80,Cryptococcus neoformans,32 µg/mL
same,MIC80,Candida albicans [2],> 64 µg/mL
same,MIC80,Candida albicans [3],32 µg/mL
same,fractional inhibitory concentration index (FICI),Candida albicans [4],0.75
same,IC50 at 48 h,in vitro,19 µM
Cc1nnc2n1-c1sc3c(c1C(c1ccc(Cl)cc1)=N[C@H]2CC(=O)Nc1ccc(C(=O)NO)cc1)CCCC3,IC50,Histone deacetylase 1,0.72 µM
same,IC50,HL-60,0.31 µM
same,IC50,Histone deacetylase,0.047 µM
same,IC50,K562,0.41 µM
same,IC50,HEL,0.29 µM
same,MIC80,Candida albicans [1],> 64 µg/mL
same,MIC80,Cryptococcus neoformans,4 µg/mL
same,MIC80,Candida albicans [2],> 64 µg/mL
same,MIC80,Candida albicans [3],4 µg/mL
same,fractional inhibitory concentration index (FICI),Candida albicans [4],0.078
same,IC50 at 48 h,in vitro,2.6 µM
Cc1nnc2n1-c1ccccc1C(c1ccccc1)=N[C@H]2CC(=O)NCc1ccc(C(=O)NO)cc1,IC50,Histone deacetylase 1,0.25 µM
same,IC50,HL-60,5.7 µM
same,IC50,Histone deacetylase,2.8 µM
same,IC50,K562,> 10 µM
same,IC50,HEL,> 10 µM
same,MIC80,Candida albicans [1],> 64 µg/mL
same,MIC80,Cryptococcus neoformans,32 µg/mL
same,MIC80,Candida albicans [2],> 64 µg/mL
same,MIC80,Candida albicans [3],8 µg/mL
same,fractional inhibitory concentration index (FICI),Candida albicans [4],0.14
same,IC50 at 48 h,in vitro,17 µM
Cc1ccc(C2=N[C@@H](CC(=O)NCc3ccc(C(=O)NO)cc3)c3nnc(C)n3-c3ccccc32)cc1,IC50,Histone deacetylase 1,0.89 µM
same,IC50,HL-60,> 10 µM
same,IC50,Histone deacetylase,5.8 µM
same,IC50,K562,> 10 µM
same,IC50,HEL,7 µM
same,MIC80,Candida albicans [1],> 64 µg/mL
same,MIC80,Cryptococcus neoformans,32 µg/mL
same,MIC80,Candida albicans [2],> 64 µg/mL
same,MIC80,Candida albicans [3],8 µg/mL
same,fractional inhibitory concentration index (FICI),Candida albicans [4],0.14
same,IC50 at 48 h,in vitro,20 µM
Cc1sc2c(c1C)C(c1ccc(Cl)cc1)=N[C@@H](CC(=O)OC(C)(C)C)c1nnc(C)n1-2,IC50,HL-60,0.15 µM
same,IC50,K562,1.4 µM
same,IC50,HEL,0.069 µM
same,MIC80,Candida albicans [1],> 64 µg/mL
same,MIC80,Cryptococcus neoformans,> 64 µg/mL
same,MIC80,Candida albicans [2],> 64 µg/mL
same,MIC80,Candida albicans [3],64 µg/mL
same,fractional inhibitory concentration index (FICI),Candida albicans [4],>2
same,IC50 at 48 h,in vitro,0.58 µM
Cc1ccc(C2=N[C@@H](CC(=O)Nc3ccc(/C=C/C(=O)NO)cc3)c3nnc(C)n3-c3ccccc32)cc1,IC50,Histone deacetylase 1,0.18 µM
same,IC50,HL-60,4.2 µM
same,IC50,Histone deacetylase,0.63 µM
same,IC50,K562,1.4 µM
same,IC50,HEL,9 µM
same,MIC80,Candida albicans [1],> 64 µg/mL
same,MIC80,Cryptococcus neoformans,8 µg/mL
same,MIC80,Candida albicans [2],> 64 µg/mL
same,MIC80,Candida albicans [3],4 µg/mL
same,fractional inhibitory concentration index (FICI),Candida albicans [4],0.094
same,IC50 at 48 h,in vitro,14 µM
